Test results published in patent US20260191968A1, “PROTAC DEGRADERS OF MLLT1 AND/OR MLLT3” (DARK BLUE THERAPEUTICS LTD, priority 2024, published 2026).

Key:
MV4-11 cells = assay: MV4-11 cellular proliferative assay, Assay Format B (CTG 2.0, 168 h); assay type: cell-based; details: Homo sapiens, 168 h (7 days), CTG 2.0, read-out: IC50 (MV4-11 cellular proliferative assay, Assay format B)
Summary of the method: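 MV4-11 cells seeded overnight in IMDM + 10% FBS, then exposed to 10-point, 3-fold dilutions from 1 uM or 100 nM top concentration (0.3% DMSO final) for 168 h at 37 °C. CTG 2.0 luminescence read; % viability vs DMSO control fitted by four-parameter logistic regression.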

MLLT1 = molecular target: T1, MLLT1 (Homo sapiens, UniProt Q03111); assay: MLLT1 degradation assay in MV4-11 cells (JESS chemiluminescent detection), three concentrations, 24 h; assay type: cell-based; details: with respect to DMSO control
T1 construct: host or cells: MV4-11
T1 sequence (Q03111 1-559): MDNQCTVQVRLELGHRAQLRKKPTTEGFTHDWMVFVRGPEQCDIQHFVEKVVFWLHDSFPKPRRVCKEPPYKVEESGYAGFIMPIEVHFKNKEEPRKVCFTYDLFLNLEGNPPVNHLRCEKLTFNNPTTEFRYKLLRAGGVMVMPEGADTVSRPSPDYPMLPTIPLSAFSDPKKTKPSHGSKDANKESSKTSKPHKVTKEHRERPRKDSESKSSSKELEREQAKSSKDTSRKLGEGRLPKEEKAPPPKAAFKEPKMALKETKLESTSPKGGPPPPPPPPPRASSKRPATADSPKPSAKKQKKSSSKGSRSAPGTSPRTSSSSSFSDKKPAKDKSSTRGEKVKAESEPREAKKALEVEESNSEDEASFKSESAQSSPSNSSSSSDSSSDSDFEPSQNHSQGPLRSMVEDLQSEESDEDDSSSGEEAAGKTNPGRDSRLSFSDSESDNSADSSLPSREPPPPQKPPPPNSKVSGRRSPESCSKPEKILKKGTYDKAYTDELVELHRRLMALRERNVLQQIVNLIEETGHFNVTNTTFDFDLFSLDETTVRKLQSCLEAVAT
Summary of the method: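 MV4-11 cells treated 24 h at 37° C, 5% CO2 with 1000, 100 and 10 nM compound (0.1% DMSO final). MLLT1 quantified by automated capillary chemiluminescent immunodetection; band peak area expressed as % degradation relative to DMSO control.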

Row | IC50 (MV4-11 cells) | MLLT1% Degradation @ 0.01 μM (MLLT1) | MLLT1% Degradation @ 0.1 μM (MLLT1) | MLLT1% Degradation @ 1 μM (MLLT1) | SMILES
1 | ≤ 0.1 µM | A (Category A: A ≥ 75% degradation) | A (Category A: A ≥ 75% degradation) | A (Category A: A ≥ 75% degradation) | CN1CCC[C@@H]1c1cc2cnc(NC(=O)c3ccc(CCCC#Cc4ccc(F)c5c4CN(C4CCC(=O)NC4=O)C5=O)cc3)cc2[nH]1 (stereo partly drawn) [Example 91, 4-(5-(2-(2,6-dioxopiperidin-3-yl)-7-fluoro-1-oxoisoindolin-4-yl)pent-4-yn-1-yl)-N-(2-((R)-1-methylpyrrolidin-2-yl)-1H-pyrrolo[3,2-c]pyridin-6-yl)benzamide]
2 | ≤ 0.1 µM | A (Category A: A ≥ 75% degradation) | A (Category A: A ≥ 75% degradation) | A (Category A: A ≥ 75% degradation) | CN1CCC[C@@H]1c1cc2cnc(NC(=O)c3ccc(CCCC#Cc4cccc5c4CN(C4CCC(=O)NC4=O)C5=O)c(F)c3)cc2[nH]1 (stereo partly drawn) [Example 93, 4-(5-(2-(2,6-dioxopiperidin-3-yl)-1-oxoisoindolin-4-yl)pent-4-yn-1-yl)-3-fluoro-N-(2-((R)-1-methylpyrrolidin-2-yl)-1H-pyrrolo[3,2-c]pyridin-6-yl)benzamide]
3 | ≤ 0.1 µM | A (Category A: A ≥ 75% degradation) | A (Category A: A ≥ 75% degradation) | A (Category A: A ≥ 75% degradation) | CN1CCC[C@@H]1c1cc2cnc(NC(=O)c3ccc(CCCC#Cc4cccc5c4CN(C4CCC(=O)NC4=O)C5=O)cc3F)cc2[nH]1 (stereo partly drawn) [Example 94, 4-(5-(2-(2,6-dioxopiperidin-3-yl)-1-oxoisoindolin-4-yl)pent-4-yn-1-yl)-2-fluoro-N-(2-((R)-1-methylpyrrolidin-2-yl)-1H-pyrrolo[3,2-c]pyridin-6-yl)benzamide]
4 | ≤ 0.1 µM | A (Category A: A ≥ 75% degradation) | A (Category A: A ≥ 75% degradation) | A (Category A: A ≥ 75% degradation) | CN1CCC[C@@H]1c1cc2cnc(NC(=O)c3cccc(CCCC#Cc4cccc5c4CN(C4CCC(=O)NC4=O)C5=O)c3)cc2[nH]1 (stereo partly drawn) [Example 95, 3-(5-(2-(2,6-dioxopiperidin-3-yl)-1-oxoisoindolin-4-yl)pent-4-yn-1-yl)-N-(2-((R)-1-methylpyrrolidin-2-yl)-1H-pyrrolo[3,2-c]pyridin-6-yl)benzamide]
5 | ≤ 0.1 µM | A (Category A: A ≥ 75% degradation) | A (Category A: A ≥ 75% degradation) | A (Category A: A ≥ 75% degradation) | CN1CCC[C@@H]1c1cc2cnc(NC(=O)c3cccc(CCCCC#Cc4cccc5c4CN(C4CCC(=O)NC4=O)C5=O)c3)cc2[nH]1 (stereo partly drawn) [Example 96, 3-(6-(2-(2,6-dioxopiperidin-3-yl)-1-oxoisoindolin-4-yl)hex-5-yn-1-yl)-N-(2-((R)-1-methylpyrrolidin-2-yl)-1H-pyrrolo[3,2-c]pyridin-6-yl)benzamide]
6 | ≤ 0.1 µM | A (Category A: A ≥ 75% degradation) | A (Category A: A ≥ 75% degradation) | A (Category A: A ≥ 75% degradation) | CN1CCC[C@@H]1c1cc2cnc(NC(=O)c3ccc(N4CCN(Cc5ccc(-c6cccc7c6CN(C6CCC(=O)NC6=O)C7=O)cc5)CC4)cc3)cc2[nH]1 (stereo partly drawn) [Example 98, 4-(4-(4-(2-(2,6-dioxopiperidin-3-yl)-1-oxoisoindolin-4-yl)benzyl)piperazin-1-yl)-N-(2-((R)-1-methylpyrrolidin-2-yl)-1H-pyrrolo[3,2-c]pyridin-6-yl)benzamide]

Row | SMILES | IC50 (MV4-11 cells) | MLLT1% Degradation @ 0.01 μM (MLLT1) | MLLT1% Degradation @ 0.1 μM (MLLT1) | MLLT1% Degradation @ 1 μM (MLLT1)
7 | CN1CCC[C@@H]1c1cc2cnc(NC(=O)c3ccc(N4CCC(OCc5ccc(-c6cccc7c6CN(C6CCC(=O)NC6=O)C7=O)cc5)CC4)cc3)cc2[nH]1 (stereo partly drawn) [Example 85, 4-(4-((4-(2-(2,6-dioxopiperidin-3-yl)-1-oxoisoindolin-4-yl)benzyl)oxy)piperidin-1-yl)-N-(2-((R)-1-methylpyrrolidin-2-yl)-1H-pyrrolo[3,2-c]pyridin-6-yl)benzamide] | ≤ 0.1 µM | C (Category C: 25% ≤ C < 50% degradation) | A (Category A: A ≥ 75% degradation) | B (Category B: 50% ≤ B < 75% degradation)
8 | CN1CC2(CC2)CC1c1cc2cnc(NC(=O)c3ccc(CCCCC#Cc4cccc5c4CN(C4CCC(=O)NC4=O)C5=O)nc3)cc2[nH]1 (stereo not drawn) [Example 86, 6-(6-(2-(2,6-dioxopiperidin-3-yl)-1-oxoisoindolin-4-yl)hex-5-yn-1-yl)-N-(2-((rel-R)-5-methyl-5-azaspiro[2.4]heptan-6-yl)-1H-pyrrolo[3,2-c]pyridin-6-yl)nicotinamide] | ≤ 0.1 µM | A (Category A: A ≥ 75% degradation) | A (Category A: A ≥ 75% degradation) | B (Category B: 50% ≤ B < 75% degradation)
9 | CN(CCC#Cc1cccc2c1CN(C1CCC(=O)NC1=O)C2=O)c1ccc(C(=O)Nc2cc3[nH]c([C@H]4CCCN4C)cc3cn2)cc1 (stereo partly drawn) [Example 87, 4-((4-(2-(2,6-dioxopiperidin-3-yl)-1-oxoisoindolin-4-yl)but-3-yn-1-yl)(methyl)amino)-N-(2-((R)-1-methylpyrrolidin-2-yl)-1H-pyrrolo[3,2-c]pyridin-6-yl)benzamide] | ≤ 0.1 µM | A (Category A: A ≥ 75% degradation) | A (Category A: A ≥ 75% degradation) | B (Category B: 50% ≤ B < 75% degradation)
10 | CN1CCC[C@@H]1c1cc2cnc(NC(=O)c3ccc(N4CCN(C(=O)CC5CCN(c6cccc7c6CN(C6CCC(=O)NC6=O)C7=O)CC5)CC4)cc3)cc2[nH]1 (stereo partly drawn) [Example 88, 4-(4-(2-(1-(2-(2,6-dioxopiperidin-3-yl)-1-oxoisoindolin-4-yl)piperidin-4-yl)acetyl)piperazin-1-yl)-N-(2-((R)-1-methylpyrrolidin-2-yl)-1H-pyrrolo[3,2-c]pyridin-6-yl)benzamide] | ≤ 0.1 µM | B (Category B: 50% ≤ B < 75% degradation) | A (Category A: A ≥ 75% degradation) | B (Category B: 50% ≤ B < 75% degradation)
11 | CN1CCC[C@@H]1c1cc2cnc(NC(=O)c3cnc(N4CCN(CC#Cc5cccc6c5CN(C5CCC(=O)NC5=O)C6=O)CC4)nc3)cc2[nH]1 (stereo partly drawn) [Example 89, 2-(4-(3-(2-(2,6-dioxopiperidin-3-yl)-1-oxoisoindolin-4-yl)prop-2-yn-1-yl)piperazin-1-yl)-N-(2-((R)-1-methylpyrrolidin-2-yl)-1H-pyrrolo[3,2-c]pyridin-6-yl)pyrimidine-5-carboxamide] | ≤ 0.1 µM | A (Category A: A ≥ 75% degradation) | A (Category A: A ≥ 75% degradation) | C (Category C: 25% ≤ C < 50% degradation)
12 | Cc1cc(C2CCN(c3ccc(C(=O)Nc4cc5[nH]c([C@H]6CCCN6C)cc5cn4)cn3)CC2)ccc1-c1cccc2c1CN(C1CCC(=O)NC1=O)C2=O (stereo partly drawn) [Example 99, 6-(4-(4-(2-(2,6-dioxopiperidin-3-yl)-1-oxoisoindolin-4-yl)-3-methylphenyl)piperidin-1-yl)-N-(2-((R)-1-methylpyrrolidin-2-yl)-1H-pyrrolo[3,2-c]pyridin-6-yl)nicotinamide] | ≤ 0.1 µM | B (Category B: 50% ≤ B < 75% degradation) | A (Category A: A ≥ 75% degradation) | A (Category A: A ≥ 75% degradation)
